Data on 16 compounds can be found in PubChem BioAssay (NCI).

Some test systems named below: SN12C renal; MDA-MB-231 breast; NCI-H226 lung; PC-3 prostate; UO-31 renal; NCI-H460 lung; SK-MEL-5 melanoma; RPMI-8226 leukemia; SNB-19 CNS; NCI-H23 lung; HCT-15 colon.
Test in all cases: NCI-60 cell line screen, 48 h

Molecules are shown by their SMILES.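 Briefly, cells in 96-well plates were exposed to five compound concentrations for 48 h, and endpoints were estimated by linear interpolation. The concentration for 50% growth inhibition is given as GI50. TGI: total growth inhibition.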 Where only a bound is given, the exact number is not on record here.

With `COc1cc(O)c2c(=O)c(OC)c(-c3ccc(OC)c(OC)c3)oc2c1.[Zn+2]`, the TGI is greater than 100 µM in the test on SN12C renal; 65.4 µM in the test with MDA-MB-231 breast; greater than 100 µM in the test on NCI-H226 lung; greater than 100 µM in the test on PC-3 prostate; greater than 100 µM in the test with UO-31 renal; greater than 100 µM in the test with NCI-H460 lung. Moreover, the TGI with SK-MEL-5 melanoma, in the test with RPMI-8226 leukemia and in the test on SNB-19 CNS was greater than 100 µM throughout. For the same compound, the GI50 with MDA-MB-231 breast is 3.83 µM; in the test with PC-3 prostate it was 9.18 µM; with SK-MEL-5 melanoma, 17.6 µM; in the test with SNB-19 CNS it was 4.31 µM.
As for `NC(=S)N/N=C1\CC(c2ccccc2)Nc2ccccc21` (stereo unspecified), the TGI in the test on SN12C renal was greater than 100 µM; with NCI-H226 lung, greater than 100 µM; in the test with UO-31 renal, 80.7 µM; in the test with NCI-H460 lung, greater than 100 µM; with NCI-H23 lung, greater than 100 µM; in the test on SK-MEL-5 melanoma, 50.9 µM. For the same compound, the TGI with HCT-15 colon, in the test with RPMI-8226 leukemia and in the test with SNB-19 CNS was greater than 100 µM throughout.
`CC(=O)Oc1cc(/C=C/c2ccc(O)cc2)cc(OC(C)=O)c1`: the TGI with SN12C renal was 68.5 µM; with MDA-MB-231 breast it was greater than 100 µM; in the test with NCI-H226 lung, 86.9 µM; with PC-3 prostate it was greater than 100 µM; with UO-31 renal it was greater than 100 µM; in the test with NCI-H460 lung, greater than 100 µM. Also, the TGI in the test on NCI-H23 lung was 53.9 µM; with SK-MEL-5 melanoma, greater than 100 µM; in the test with HCT-15 colon it was greater than 100 µM; in the test on RPMI-8226 leukemia, 25.4 µM; with SNB-19 CNS, greater than 100 µM.
With `COc1ccc(OC)c([N+](=O)[O-])c1-c1nc2sc(C)c(C)n2c1/C=N/N=C(N)N`, the TGI in the test with SN12C renal, in the test on MDA-MB-231 breast, in the test with NCI-H226 lung, in the test with PC-3 prostate, in the test with UO-31 renal and in the test on NCI-H460 lung was greater than 100 µM throughout. Moreover, the TGI was greater than 100 µM in the test on NCI-H23 lung; greater than 100 µM with SK-MEL-5 melanoma; greater than 100 µM in the test on HCT-15 colon; 89.9 µM in the test on RPMI-8226 leukemia; greater than 100 µM in the test with SNB-19 CNS.
As for `CC(=O)C(N=NC1CCC(S(=O)(=O)NB2N=CS2)CC1)C(=O)Nc1ccccc1C` (stereo unspecified), the TGI with SN12C renal is 34.7 µM; in the test on NCI-H226 lung, 31.4 µM; in the test on UO-31 renal, 34 µM; in the test with NCI-H460 lung, 33.9 µM; with NCI-H23 lung it was 28.9 µM; in the test with SK-MEL-5 melanoma, 26.9 µM. The results for the TGI in the test with HCT-15 colon, in the test on RPMI-8226 leukemia and in the test on SNB-19 CNS were 22.3 µM, greater than 100 µM and 31.2 µM, respectively.
Take `C[N+]1(C)C/C(=C\c2ccc(O)cc2)C(=O)/C(=C/c2ccc(O)cc2)C1`: the TGI in the test with SN12C renal, in the test with UO-31 renal, in the test on NCI-H460 lung, with SK-MEL-5 melanoma, with HCT-15 colon and with RPMI-8226 leukemia was greater than 100 µM throughout. Further, the TGI in the test on SNB-19 CNS is greater than 100 µM.
For `N=C(N)SCCN1CCCCC1`, the TGI is 73.4 µM with SN12C renal; 44.6 µM in the test with MDA-MB-231 breast; 47.7 µM with NCI-H226 lung; 45.8 µM in the test with PC-3 prostate; greater than 100 µM in the test with UO-31 renal; greater than 100 µM with NCI-H460 lung. Also, the TGI in the test with NCI-H23 lung was greater than 100 µM; in the test with SK-MEL-5 melanoma, greater than 100 µM; in the test on HCT-15 colon, greater than 100 µM; in the test with RPMI-8226 leukemia, 40.2 µM.
In the case of `Nc1ccc(S(=O)(=O)NCCS(=O)(=O)O)cc1`, the TGI with SN12C renal, in the test with MDA-MB-231 breast, in the test on NCI-H226 lung, with PC-3 prostate, with UO-31 renal and in the test on NCI-H460 lung was greater than 100 µM each time. In addition, the TGI with NCI-H23 lung, in the test with SK-MEL-5 melanoma, in the test with HCT-15 colon and in the test with SNB-19 CNS was greater than 100 µM each time.
In the case of `C[N+]1(c2ccccc2)C=C(c2ccccc2)SC1=S` (stereo unspecified), the TGI in the test with SN12C renal, in the test on MDA-MB-231 breast, with NCI-H226 lung, in the test with PC-3 prostate, with UO-31 renal and in the test with NCI-H460 lung was greater than 100 µM in each case. For the same compound, the TGI in the test on NCI-H23 lung, in the test with SK-MEL-5 melanoma, in the test on HCT-15 colon, in the test on RPMI-8226 leukemia and in the test on SNB-19 CNS was greater than 100 µM throughout.
With `Cc1cccc(/C=C2/C(=O)Nc3ccccc32)n1`, the TGI in the test with SN12C renal was 37.9 µM; with MDA-MB-231 breast, 34.3 µM; with NCI-H226 lung, 35.9 µM; with PC-3 prostate, greater than 60.9 µM; in the test with UO-31 renal, 30.1 µM; in the test on NCI-H460 lung it was greater than 81.2 µM. Moreover, the TGI with NCI-H23 lung is 28.9 µM; with SK-MEL-5 melanoma it was 26.3 µM; in the test on HCT-15 colon, greater than 68.9 µM; in the test with RPMI-8226 leukemia it was 46.5 µM; in the test with SNB-19 CNS it was greater than 58.9 µM. For the same compound, the GI50 with MDA-MB-231 breast was 11.6 µM; in the test on NCI-H226 lung, 14.6 µM.
Take `O=C1O/C(=C\C=C\CO)C=C1/C=C/CO`: the TGI in the test on SN12C renal is 80.4 µM; with MDA-MB-231 breast, 52.8 µM; in the test with NCI-H226 lung, 95.8 µM; with PC-3 prostate, 42.5 µM; with UO-31 renal, 30.8 µM; in the test with NCI-H460 lung, greater than 100 µM. The TGI in the test with NCI-H23 lung stood at 41.9 µM; in the test on SK-MEL-5 melanoma it was 46 µM; with HCT-15 colon, 30.8 µM; in the test with RPMI-8226 leukemia, 47.6 µM; in the test on SNB-19 CNS it was 51.4 µM.
On to `Cc1ncc(COP(=O)(O)O)c(C)c1O`, for which the TGI with SN12C renal, with MDA-MB-231 breast, with NCI-H226 lung, with PC-3 prostate, with UO-31 renal and in the test on NCI-H460 lung was greater than 100 µM in each case. For the same compound, the TGI in the test on NCI-H23 lung, with SK-MEL-5 melanoma, in the test with HCT-15 colon and in the test on SNB-19 CNS was greater than 100 µM throughout.
Regarding `CCOc1ccc(N=Nc2ccc(-c3ccc(N=Nc4c(O)ccc5cc(S(=O)(=O)O)cc(S(=O)(=O)O)c45)cc3)cc2)cc1`, the TGI in the test on MDA-MB-231 breast, in the test on NCI-H226 lung, in the test on PC-3 prostate, in the test with UO-31 renal, in the test with NCI-H460 lung and in the test with NCI-H23 lung was greater than 100 µM each time. In addition, the TGI in the test with SK-MEL-5 melanoma, with HCT-15 colon, in the test on RPMI-8226 leukemia and in the test on SNB-19 CNS was greater than 100 µM each time.
On to `CCCCCCCCc1ccc(CCC(N)(CO)CO)cc1`, for which the GI50 in the test on SN12C renal is 3.5 µM; in the test on MDA-MB-231 breast it was 0.521 µM; with NCI-H226 lung, 1.77 µM; in the test with PC-3 prostate, 1.75 µM; in the test on UO-31 renal it was 1.7 µM; with NCI-H460 lung, 1.76 µM. Moreover, the GI50 in the test with SK-MEL-5 melanoma was 1.62 µM; in the test on HCT-15 colon, 1.68 µM. Further, the TGI in the test on SN12C renal is 13.9 µM; in the test on MDA-MB-231 breast, 1.98 µM; in the test with NCI-H226 lung it was 3.42 µM; in the test with PC-3 prostate, 3.41 µM; in the test with UO-31 renal, 3.4 µM; in the test on NCI-H460 lung, 3.53 µM. The values for the TGI with SK-MEL-5 melanoma and in the test on HCT-15 colon were 2.98 µM and 3.42 µM, respectively.
With `C=C(C[C@@H](O)[C@H](C)NC(=O)OCc1ccccc1)C(=O)OC(C)(C)C`, the TGI in the test on SN12C renal, with MDA-MB-231 breast, with NCI-H226 lung, in the test on PC-3 prostate, with UO-31 renal and in the test on NCI-H460 lung was greater than 100 µM in each case. Further, the TGI in the test with NCI-H23 lung, with SK-MEL-5 melanoma, in the test on HCT-15 colon, with RPMI-8226 leukemia and in the test on SNB-19 CNS was greater than 100 µM each time.
Consider `O=S(=O)([O-])[O-].[Fe+2].[OH2+]c1c(Cl)cc(Cl)cc1/C=N/Nc1ccccn1`, for which the TGI is 2.82 µM in the test on SN12C renal; 4.41 µM in the test with NCI-H226 lung; 3.13 µM in the test on UO-31 renal; 4.42 µM in the test on NCI-H460 lung; 2.64 µM in the test with NCI-H23 lung; 15.1 µM in the test on SK-MEL-5 melanoma. Also, the TGI amounted to 3.48 µM with HCT-15 colon, 6.12 µM with RPMI-8226 leukemia and 3.64 µM in the test on SNB-19 CNS.
